In patent US12421232B2, “Kinase inhibitor compounds and compositions and methods of use” (ICAHN SCHOOL OF MEDICINE AT MOUNT SINAI, priority 2018, dated 2025):

Experiments:
[1] = system: human β-cells (dispersed human islet cells); experiment: Human β-cell proliferation assay (Ki67 and insulin staining); format: cell-based; conditions: for Human β-Cell proliferation: 96 hours
HIPK3 = target: T1, HIPK3 (Homo sapiens, UniProt Q9H422); experiment: KINOMEscan Assay (DiscoverX); format: binding; conditions: HIPK3; 10 μM
T1 construct: purchased DiscoverX

[2] = target: T2, JAK3(JH1DOMAIN-CATALYTIC) (Homo sapiens, UniProt P52333); experiment: KINOMEscan Assay (DiscoverX); format: binding; conditions: JAK3(JH1DOMAIN-[…]); 10 μM; read-out: % DMSO Ctrl
T2 construct: JH1DOMAIN; purchased DiscoverX

[3] = system: NFAT2-GFP nuclear translocation in R7T1 rodent beta cells; experiment: NFAT2 translocation assay; format: cell-based; conditions: 10 μM, 24 hours
From the text: NFAT2T Translocation Assay. […] At least 1000 cells were counted.

VPS34 = target: T3, VPS34 (Homo sapiens, UniProt Q8NEB9); experiment: KINOMEscan Assay (DiscoverX); format: binding; conditions: VPS34; 10 μM
T3 construct: purchased DiscoverX

HIPK2 = target: T4, HIPK2 (Homo sapiens, UniProt Q9H2X6); experiment: KINOMEscan Assay (DiscoverX); format: binding; conditions: HIPK2; 10 μM
T4 construct: purchased DiscoverX

FLT3(D835V) = target: T5, FLT3(D835V) (Homo sapiens, UniProt P36888, D835V); experiment: KINOMEscan Assay (DiscoverX); format: binding; conditions: FLT3(D835V) mutant; 10 μM; read-out: % DMSO Ctrl
T5 construct: purchased DiscoverX
T5 sequence (P36888 27-993 D835V): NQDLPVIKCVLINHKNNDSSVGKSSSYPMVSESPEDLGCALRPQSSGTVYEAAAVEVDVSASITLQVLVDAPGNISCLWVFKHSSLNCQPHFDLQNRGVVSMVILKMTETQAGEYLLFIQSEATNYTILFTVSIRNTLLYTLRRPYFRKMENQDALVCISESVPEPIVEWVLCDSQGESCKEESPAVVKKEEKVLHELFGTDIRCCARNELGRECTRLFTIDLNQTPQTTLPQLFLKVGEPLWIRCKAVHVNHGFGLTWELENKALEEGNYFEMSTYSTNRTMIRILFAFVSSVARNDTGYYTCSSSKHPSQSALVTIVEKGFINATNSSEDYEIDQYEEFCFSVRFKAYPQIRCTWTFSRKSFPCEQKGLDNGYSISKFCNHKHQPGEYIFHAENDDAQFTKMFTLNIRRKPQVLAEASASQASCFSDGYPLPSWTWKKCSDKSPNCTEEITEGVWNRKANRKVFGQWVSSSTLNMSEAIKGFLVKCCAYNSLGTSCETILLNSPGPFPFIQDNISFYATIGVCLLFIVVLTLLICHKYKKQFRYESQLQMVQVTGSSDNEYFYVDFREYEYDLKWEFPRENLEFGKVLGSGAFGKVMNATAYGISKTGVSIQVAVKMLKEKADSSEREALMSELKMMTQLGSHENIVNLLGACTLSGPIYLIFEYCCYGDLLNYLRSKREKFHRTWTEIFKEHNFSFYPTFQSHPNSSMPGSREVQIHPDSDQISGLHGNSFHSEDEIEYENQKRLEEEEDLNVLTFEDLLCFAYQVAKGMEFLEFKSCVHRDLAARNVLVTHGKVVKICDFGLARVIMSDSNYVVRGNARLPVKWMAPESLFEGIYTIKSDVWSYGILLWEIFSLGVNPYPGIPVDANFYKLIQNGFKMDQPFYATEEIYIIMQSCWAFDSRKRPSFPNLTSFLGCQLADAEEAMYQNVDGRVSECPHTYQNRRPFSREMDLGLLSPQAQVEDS

PIK3CG = target: T6, PIK3CG (Homo sapiens, UniProt P48736); experiment: KINOMEscan Assay (DiscoverX); format: binding; conditions: read-out: % DMSO Ctrl
T6 construct: purchased DiscoverX

CSNK2A1 = target: T7, CSNK2A1 (Homo sapiens, UniProt P68400); experiment: KINOMEscan Assay (DiscoverX); format: binding; conditions: CSNK2A1; 10 μM
T7 construct: purchased DiscoverX

CSNK1G2 = target: T8, CSNK1G2 (Homo sapiens, UniProt P78368); experiment: KINOMEscan Assay (DiscoverX); format: binding; conditions: CSNK1G2; 10 μM
T8 construct: purchased DiscoverX

IRAK1 = target: T9, IRAK1 (Homo sapiens, UniProt P51617); experiment: KINOMEscan Assay (DiscoverX); format: binding; conditions: IRAK1; 10 μM
T9 construct: purchased DiscoverX

PIM3 = target: T10, PIM3 (Homo sapiens, UniProt Q86V86); experiment: KINOMEscan Assay (DiscoverX); format: binding; conditions: PIM3; 10 μM; read-out: % DMSO Ctrl
T10 construct: purchased DiscoverX

DYRK1A = DYRK1A (Homo sapiens, UniProt Q13627); experiment: FRET-based LanthaScreen Eu Kinase Binding Assay (Life Technologies)
FLT3(ITD,D835V) = experiment: KINOMEscan Assay (DiscoverX); format: binding; conditions: FLT3(ITD,D835V) mutant; 10 μM
FLT3(ITD) = experiment: KINOMEscan Assay (DiscoverX); format: binding; conditions: FLT3(ITD) mutant; 10 μM
[4] = 10 μM, KI67 labeling of insulin cells

T7 sequence (P68400 whole entry): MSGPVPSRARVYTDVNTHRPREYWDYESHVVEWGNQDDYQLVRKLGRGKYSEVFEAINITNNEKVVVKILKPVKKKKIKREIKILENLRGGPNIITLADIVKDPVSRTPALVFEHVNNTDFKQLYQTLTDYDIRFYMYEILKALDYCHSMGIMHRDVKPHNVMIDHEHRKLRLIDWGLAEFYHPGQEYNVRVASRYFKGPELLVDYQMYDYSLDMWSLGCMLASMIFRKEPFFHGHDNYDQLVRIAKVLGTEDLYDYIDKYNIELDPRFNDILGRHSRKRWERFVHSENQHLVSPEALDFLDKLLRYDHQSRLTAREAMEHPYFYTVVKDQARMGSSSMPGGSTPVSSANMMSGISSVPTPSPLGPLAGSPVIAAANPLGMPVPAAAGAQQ
T2 sequence (P52333 822-1111 limits assumed): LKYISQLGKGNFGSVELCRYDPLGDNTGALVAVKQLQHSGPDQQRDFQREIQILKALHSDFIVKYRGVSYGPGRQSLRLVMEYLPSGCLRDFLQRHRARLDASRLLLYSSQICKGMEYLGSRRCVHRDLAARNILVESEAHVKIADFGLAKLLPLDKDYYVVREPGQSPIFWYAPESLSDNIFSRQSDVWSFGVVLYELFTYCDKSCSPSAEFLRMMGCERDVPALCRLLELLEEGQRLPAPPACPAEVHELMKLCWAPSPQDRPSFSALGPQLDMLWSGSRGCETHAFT
T1 sequence (Q9H422 whole entry): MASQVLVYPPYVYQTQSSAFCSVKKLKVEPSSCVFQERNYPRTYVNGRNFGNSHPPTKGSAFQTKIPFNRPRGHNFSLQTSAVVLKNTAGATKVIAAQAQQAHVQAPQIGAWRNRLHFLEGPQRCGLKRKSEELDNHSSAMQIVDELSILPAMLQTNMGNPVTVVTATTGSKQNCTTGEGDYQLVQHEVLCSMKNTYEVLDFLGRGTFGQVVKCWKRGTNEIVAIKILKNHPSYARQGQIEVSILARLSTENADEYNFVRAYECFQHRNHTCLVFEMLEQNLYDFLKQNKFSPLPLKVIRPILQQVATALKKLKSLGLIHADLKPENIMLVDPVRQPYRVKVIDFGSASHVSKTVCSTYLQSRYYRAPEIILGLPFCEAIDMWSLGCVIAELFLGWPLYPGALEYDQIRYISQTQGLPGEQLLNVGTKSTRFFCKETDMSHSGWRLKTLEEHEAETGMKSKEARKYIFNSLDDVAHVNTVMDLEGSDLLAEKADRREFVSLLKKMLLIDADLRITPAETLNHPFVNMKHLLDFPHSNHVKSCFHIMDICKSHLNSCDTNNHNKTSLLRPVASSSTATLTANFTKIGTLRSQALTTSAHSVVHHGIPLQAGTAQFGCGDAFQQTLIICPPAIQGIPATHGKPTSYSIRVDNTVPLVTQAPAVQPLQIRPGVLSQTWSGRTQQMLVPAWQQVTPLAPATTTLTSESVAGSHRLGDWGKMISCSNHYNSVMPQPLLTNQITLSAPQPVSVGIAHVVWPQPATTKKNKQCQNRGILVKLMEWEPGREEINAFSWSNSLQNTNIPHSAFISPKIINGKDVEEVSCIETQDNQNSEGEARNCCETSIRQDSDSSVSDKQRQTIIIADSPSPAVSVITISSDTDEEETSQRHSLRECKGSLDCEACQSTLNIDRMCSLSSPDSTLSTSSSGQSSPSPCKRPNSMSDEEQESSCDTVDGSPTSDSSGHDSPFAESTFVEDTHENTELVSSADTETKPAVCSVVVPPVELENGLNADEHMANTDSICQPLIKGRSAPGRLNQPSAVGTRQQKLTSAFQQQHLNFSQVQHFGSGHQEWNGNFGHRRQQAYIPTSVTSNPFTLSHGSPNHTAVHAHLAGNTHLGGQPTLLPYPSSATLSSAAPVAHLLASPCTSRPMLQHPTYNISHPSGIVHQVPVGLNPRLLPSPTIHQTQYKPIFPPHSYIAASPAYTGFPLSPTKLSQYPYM
T4 sequence (Q9H2X6 whole entry): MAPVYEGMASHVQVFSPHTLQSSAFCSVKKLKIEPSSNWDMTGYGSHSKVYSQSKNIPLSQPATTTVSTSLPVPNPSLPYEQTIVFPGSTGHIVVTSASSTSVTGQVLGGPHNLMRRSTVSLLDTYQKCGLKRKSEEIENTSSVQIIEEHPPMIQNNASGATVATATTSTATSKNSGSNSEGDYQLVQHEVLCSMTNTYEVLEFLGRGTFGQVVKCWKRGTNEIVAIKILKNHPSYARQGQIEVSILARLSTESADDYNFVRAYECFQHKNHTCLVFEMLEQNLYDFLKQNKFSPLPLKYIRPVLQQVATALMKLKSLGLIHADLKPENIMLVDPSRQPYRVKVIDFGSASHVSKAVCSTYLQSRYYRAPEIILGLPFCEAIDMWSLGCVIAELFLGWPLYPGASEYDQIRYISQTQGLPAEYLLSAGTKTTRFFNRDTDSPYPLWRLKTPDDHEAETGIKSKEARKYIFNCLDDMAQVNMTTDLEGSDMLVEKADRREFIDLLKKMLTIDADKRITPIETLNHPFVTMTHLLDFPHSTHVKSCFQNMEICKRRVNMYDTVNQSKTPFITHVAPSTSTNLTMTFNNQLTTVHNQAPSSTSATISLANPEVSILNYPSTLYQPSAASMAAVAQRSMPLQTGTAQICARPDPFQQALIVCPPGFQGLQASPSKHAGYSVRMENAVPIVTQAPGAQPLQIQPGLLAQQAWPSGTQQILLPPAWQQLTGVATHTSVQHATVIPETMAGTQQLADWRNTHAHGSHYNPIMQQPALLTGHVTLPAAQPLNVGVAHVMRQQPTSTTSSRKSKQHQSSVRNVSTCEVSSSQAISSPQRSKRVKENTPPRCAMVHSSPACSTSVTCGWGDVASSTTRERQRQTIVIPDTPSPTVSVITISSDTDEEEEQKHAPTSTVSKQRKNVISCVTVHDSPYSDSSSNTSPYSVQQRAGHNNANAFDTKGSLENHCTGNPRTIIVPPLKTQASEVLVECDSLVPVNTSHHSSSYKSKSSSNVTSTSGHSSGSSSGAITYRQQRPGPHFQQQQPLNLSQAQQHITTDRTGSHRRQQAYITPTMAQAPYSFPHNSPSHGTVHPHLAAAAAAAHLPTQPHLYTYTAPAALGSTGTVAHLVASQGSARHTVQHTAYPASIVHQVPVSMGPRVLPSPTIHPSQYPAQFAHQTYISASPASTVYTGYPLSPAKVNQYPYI
T3 sequence (Q8NEB9 whole entry): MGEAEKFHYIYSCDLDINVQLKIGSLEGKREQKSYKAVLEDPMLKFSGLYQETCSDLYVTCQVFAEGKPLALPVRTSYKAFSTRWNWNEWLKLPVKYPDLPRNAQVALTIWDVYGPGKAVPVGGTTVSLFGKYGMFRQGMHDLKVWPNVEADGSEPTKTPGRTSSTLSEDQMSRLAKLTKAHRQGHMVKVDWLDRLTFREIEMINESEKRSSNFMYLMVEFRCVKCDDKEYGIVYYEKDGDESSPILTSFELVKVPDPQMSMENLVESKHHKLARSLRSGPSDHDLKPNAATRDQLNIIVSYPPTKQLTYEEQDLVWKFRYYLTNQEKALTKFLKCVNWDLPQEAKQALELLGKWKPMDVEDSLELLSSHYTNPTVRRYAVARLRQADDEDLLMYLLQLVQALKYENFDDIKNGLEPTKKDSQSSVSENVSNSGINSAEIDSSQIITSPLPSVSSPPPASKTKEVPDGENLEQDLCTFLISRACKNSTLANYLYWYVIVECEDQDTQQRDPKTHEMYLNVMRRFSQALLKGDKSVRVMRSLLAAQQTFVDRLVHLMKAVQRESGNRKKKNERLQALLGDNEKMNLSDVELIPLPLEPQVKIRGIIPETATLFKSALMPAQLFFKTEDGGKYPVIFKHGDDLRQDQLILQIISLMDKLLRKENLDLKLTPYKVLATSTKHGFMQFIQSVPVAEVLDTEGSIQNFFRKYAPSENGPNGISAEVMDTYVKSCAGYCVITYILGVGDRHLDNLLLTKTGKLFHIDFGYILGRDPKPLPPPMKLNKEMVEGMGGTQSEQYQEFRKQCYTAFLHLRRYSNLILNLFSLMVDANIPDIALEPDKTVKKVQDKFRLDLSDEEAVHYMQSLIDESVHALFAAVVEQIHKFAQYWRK
T9 sequence (P51617 whole entry): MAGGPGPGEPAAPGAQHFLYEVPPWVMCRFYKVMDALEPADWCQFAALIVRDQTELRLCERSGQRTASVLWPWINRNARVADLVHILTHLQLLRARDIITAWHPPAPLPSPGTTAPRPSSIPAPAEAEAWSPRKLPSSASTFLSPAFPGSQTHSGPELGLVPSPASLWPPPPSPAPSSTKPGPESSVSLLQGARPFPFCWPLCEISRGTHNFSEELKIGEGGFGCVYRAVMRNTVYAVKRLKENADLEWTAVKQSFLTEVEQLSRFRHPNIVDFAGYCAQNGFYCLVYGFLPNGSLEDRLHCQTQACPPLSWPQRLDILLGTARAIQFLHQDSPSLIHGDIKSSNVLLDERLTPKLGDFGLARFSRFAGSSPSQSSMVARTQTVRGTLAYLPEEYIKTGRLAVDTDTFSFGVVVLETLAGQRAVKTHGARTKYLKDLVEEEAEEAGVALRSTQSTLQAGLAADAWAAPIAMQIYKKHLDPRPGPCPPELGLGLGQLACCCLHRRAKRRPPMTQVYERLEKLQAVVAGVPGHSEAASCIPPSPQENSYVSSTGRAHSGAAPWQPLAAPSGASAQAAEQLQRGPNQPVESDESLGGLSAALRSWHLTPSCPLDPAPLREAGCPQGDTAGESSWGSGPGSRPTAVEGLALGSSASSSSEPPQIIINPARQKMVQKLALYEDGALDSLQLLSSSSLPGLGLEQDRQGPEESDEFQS

Q: For “4-(7-Methoxy-1-methyl-β-carbolin-9-yl)propionitrile [Compound 20-1o]”, which “Human β-Cell proliferation” value ([1]; 10 μM) is on record?
A: 1 (10)

Q: With `COc1ccc2c(c1)[nH]c1c(Cl)nccc12` [Compound 1-5, 1-Chloro-7-Methoxy-9H-β-Carboline] as the compound, how does the “human β-cell proliferation (in words)” value [1, 4] read?
A: very good human β-cell proliferation

Q: And the “human β-cell proliferation (in words)” value ([1]; concentration not given)?
A: human β-cell proliferation comparable to that of harmine

Q: Which “human β-cell proliferation (in words)” value ([1]; concentration not given) does the source give for `COc1ccc2c(c1)[nH]c1c(N3CCC3)nccc12` [Compound 1-6a, 1-(Azetidin-1-yl)-7-Methoxy-9H-β-Carboline] here?
A: did not show any β-cell proliferation

Q: With `COc1ccc2c(c1)[nH]c1c(N3CCCC3)nccc12` [Compound 1-6b, 1-(Pyrrolidin-1-yl)-7-Methoxy-9H-β-Carboline] as the compound, how does the “human β-cell proliferation (in words)” value ([1]; concentration not given) read?
A: did not show any β-cell proliferation

Q: How did the “human β-cell proliferation (in words)” value ([1]; concentration not given) turn out when `COc1ccc2c(c1)[nH]c1c(N3CCCC3c3ccccc3)nccc12` (stereo not drawn) [Compound 1-6d, 1-(2-Phenylpyrrolidin-1-yl)-7-Methoxy-9H-β-Carboline] was run?
A: did not show any β-cell proliferation

Q: Which “human β-cell proliferation (in words)” value ([1]; concentration not given) does the source give for `COc1ccc2c(c1)[nH]c1c(N3CCCC3Cc3ccccc3)nccc12` (stereo not drawn) [Compound 1-6f, 1-(2-Benzylpyrrolidin-1-yl)-7-Methoxy-9H-β-Carboline] here?
A: did not show any β-cell proliferation

Q: Which “% DMSO Ctrl” value (HIPK3) does the source give for `COc1ccc2c(c1)[nH]c1c(CO)nccc12` [Compound 2-2, 1-Hydroxymethyl-7-Methoxy-9H-β-Carboline] here?
A: no inhibition

Q: What about the remaining binding at 10 µM [2] of the same compound?
A: 99%

Q: What about the “NFAT2 translocation to nucleus” value [3] of the same compound?
A: drove NFAT2 translocation to nucleus

Q: And the “% DMSO Ctrl” value (VPS34)?
A: no inhibition

Q: What about the “% DMSO Ctrl” value (HIPK2) of the same compound?
A: no inhibition

Q: And the remaining binding at 10 µM (FLT3(D835V))?
A: 37%

Q: What about the remaining binding at 10 µM (PIK3CG) of the same compound?
A: 44%

Q: And the “% DMSO Ctrl” value (CSNK2A1)?
A: no inhibition

Q: What about the “% DMSO Ctrl” value (CSNK1G2) of the same compound?
A: no inhibition

Q: What about the “% DMSO Ctrl” value (IRAK1) of the same compound?
A: no inhibition

Q: And the remaining binding at 10 µM (PIM3)?
A: 77%

Q: And the beta cell toxicity ([1]; at 30 μM)?
A: did not cause toxicity

Q: `COc1ccc2c(c1)[nH]c1c(C(C)=O)nccc12` [Compound 3-2, 1-acetyl-7-methoxy-9H-β-carboline] was tested. Which “human β-cell proliferation (in words)” value [1, 4] did it give?
A: reduced β-cell proliferation

Q: And the “human β-cell proliferation (in words)” value ([1]; 30 μM)?
A: proliferation in the range comparable to harmine

Q: What about the “human β-cell proliferation (in words)” value ([1]; concentration not given) of the same compound?
A: human β-cell proliferation comparable to that of harmine

Q: For `Cc1nccc2c1[nH]c1cc(OCCCCCC(N)=O)ccc12` [Compound 10-3e, 6-(7-oxy-1-methyl-9-H-b-carbolin)hexanamide], which “Human β-Cell proliferation” value ([1]; 10 μM) is on record?
A: 0.2 (10)

Q: What about the “human β-cell proliferation (in words)” value ([1]; concentration not given) of the same compound?
A: reduced jβ-cell proliferation compared to harmine

Q: With `C=CCn1c2cc(OC)ccc2c2ccnc(C)c21` [Compound 20-1t, 3-(7-Methoxy-1-methyl-β-carbolin-9-yl)-propan-1-ene] as the compound, how does the IC50 (DYRK1A) read?
A: 42 nM

Q: For `COc1ccc2c3ccnc(C)c3n(Cc3ccccc3)c2c1` [Compound 20-1x, 1-(7-Methoxy-1-methyl-β-carbolin-9-yl)-1-phenylmethane], which IC50 (DYRK1A) is on record?
A: 275 nM

Q: `COc1ccc2c3ccnc(C)c3n(CCc3ccccc3)c2c1` [Compound 20-1y, 2-(7-Methoxy-1-methyl-β-carbolin-9-yl)-1-phenylethane] was tested. Which IC50 (DYRK1A) did it give?
A: 31 nM

Q: How did the “% DMSO Ctrl” value (FLT3(ITD,D835V)) turn out when `COc1ccc2c3ccnc(C)c3n(CCCC(N)=O)c2c1` [Compound 20-2c, 4-(7-Methoxy-1-methyl-β-carbolin-9-yl)butanamide] was run?
A: 38 % DMSO Ctrl

Q: What about the “% DMSO Ctrl” value (FLT3(ITD)) of the same compound?
A: 57 % DMSO Ctrl

Q: Which IC50 (DYRK1A) does the source give for `CCCC(C)NC(=O)C(C)(C)CCn1c2cc(OC)ccc2c2ccnc(C)c21` (stereo not drawn) [Compound 20-10l, N-(1-methylbutyl)-4-(7-Methoxy-1-methyl-β-carbolin-9-yl)-α,α-dimethylbutanamide] here?
A: 77 nM

Q: With `C#CCCn1c2cc(OC)ccc2c2ccnc(C)c21` [Compound 20-23b, 4-(7-Methoxy-1-methyl-β-carbolin-9-yl)-but-1-yne] as the compound, how does the IC50 (DYRK1A) read?
A: 33 nM

Q: Which IC50 (DYRK1A) does the source give for `COCCn1cc(CCCn2c3cc(OC)ccc3c3ccnc(C)c32)nn1` [Compound 20-24b, 4-(3-(7-Methoxy-1-methyl-β-carbolin-9-yl)propyl)-1-(2-methoxyethyl)-1,2,3-triazole] here?
A: 437 nM

Q: For `COc1ccc2c3ccnc(C)c3n(Cc3noc(N)n3)c2c1` [Compound 20-38a, 1-(1-(7-methoxy-1-methyl-β-carbolin-9-yl)methyl)-5-amino-1,2,4-oxadiazole], which IC50 (DYRK1A) is on record?
A: 138 nM

Q: How did the IC50 (DYRK1A) turn out when `COc1ccc2c3ccnc(C)c3n(CCc3noc(N)n3)c2c1` [Compound 20-38b, 3-(3-(7-methoxy-1-methyl-β-carbolin-9-yl)ethyl)-5-amino-1,2,4-oxadiazole] was run?
A: 66 nM

Q: How did the IC50 (DYRK1A) turn out when `COc1ccc2c3ccnc(C)c3n(CCCCc3noc(N)n3)c2c1` [Compound 20-38c, 5-(5-(7-methoxy-1-methyl-β-carbolin-9-yl)butyl)-5-amino-1,2,4-oxadiazole] was run?
A: 103 nM

Q: `COc1ccc2c3ccnc(C)c3n(CCC(C)(C)C(N)=O)c2c1` [Compound 20-40, 2,2-dimethyl-4-(7-Methoxy-1-methyl-β-carbolin-9-yl)butanamide] was tested. Which IC50 (DYRK1A) did it give?
A: 20 nM

Q: For “Ethyl 4-(7-Methoxy-1-methyl-β-carbolin-9-yl)butanecarboximidate hydrochloride [Compound 20-22]”, which “Human β-Cell proliferation” value ([1]; 10 μM) is on record?
A: 0.8 (10)
